According to paper PMC8909834, “An Orally Bioavailable and Highly Efficacious Inhibitor of CDK9/FLT3 for the Treatment of Acute Myeloid Leukemia” (Cancers, 2022):

Columns and labels:
Experiment in all cases: Kinase Hotspot radiolabel assay
Format in all cases: biochemical
Conditions in all cases: read-out: % Residual Activity
[1] = molecular target: T1, ALK (Homo sapiens, UniProt Q9UM73)
T1 construct: purchased Reaction Biology Corporation (Kinase HotSpot)
Procedure: (§1) Kinase assay. The ADP Glo^TM kinase assay (Promega, Madison, WI, USA) was used to assess the inhibition by CDDD11-8 of CDKs 1, 2, 4, 6, 7, and 9, as well as the mutant isoforms of FLT3. The assays were performed in accord with the manufacturer’s protocol (Promega) as described previously. Briefly, serial three-fold dilutions of CDDD11-8 were prepared in 100% DMSO from a 2 mM stock solution, followed by 1:40 dilution into Milli-Q water. Subsequently, 1 µL of each sample was incubated with 4 µL of kinase mixture containing a particular CDK enzyme and its substrate, standard kinase buffer [3 mM MgCl2, 50 mM HEPES-NaOH pH 7.5, 3 mM MnCl2, 3 µM Na-orthovanadate, 1 mM dithiothreitol (DTT)], kinase dilution buffer (containing 0.25 mg/mL PEG20,000, 50 mM HEPES-NaOH pH 7.5, 1 mM DTT), and ATP at 37 °C for 30 to 40 min. The final reaction mixture contained 0.5% DMSO in all samples, and the applied kinase concentrations were 1, 1, 10, 40, 20, and 50 nM for CDK1, 2, 4, 6, 7, and 9, respectively. The reaction was stopped by adding ADP-Glo reagent and the mixture was incubated further in the dark at room temperature for 40 min. As a final step, kinase detection reagent was added to each mixture and incubated at room temperature for 30 to 60 min. Luminescence was read using an EnVision® multilabel plate reader (PerkinElmer, Beaconsfield, UK), and half-maximum inhibitory concentrations (IC50) were calculated using a non-linear regression model with a variable slope, plotting log (inhibitor concentration) vs. response using the following formula: Ar%=Bottom+Top−Bottom/1+Inhibitor Concentration/IC50^HillSlope where the relative activity Ar (%) is the signal relative to the controls, IC50 is the half maximum concentration, Hillslope is the steepness of the dose-response curve, Top and Bottom are plateaus reflecting the maximum and minimum in responses on the Y-axis (GraphPad Prism version 7, San Diego, CA, USA). Ki values were calculated from the IC50 using the Cheng−Prusoff equation [32]. Extensive specificity assessment was carried out by Reaction Biology Corporation (Malvern, PA, USA) with 369 kinases using 1 µM CDDD11-8 concentration in a Kinase Hotspot radiolabel assay (for experimental details, please see (Reaction Biology https://www.reactionbiology.com/). Subsequently, Ki values were determined for kinases with greater than 90% inhibition.

[2] = molecular target: T2, ARAF (Homo sapiens, UniProt P10398)
T2 construct: purchased Reaction Biology Corporation (Kinase HotSpot)
Procedure: as §1

[3] = molecular target: T3, ASK1/MAP3K5 (Homo sapiens, UniProt Q99683)
T3 construct: purchased Reaction Biology Corporation (Kinase HotSpot)
Procedure: as §1

[4] = molecular target: T4, AXL (Homo sapiens, UniProt P30530)
T4 construct: purchased Reaction Biology Corporation (Kinase HotSpot)
Procedure: as §1

[5] = molecular target: T5, CDK16/cyclin Y (PCTAIRE) (Homo sapiens, UniProt Q00536)
T5 construct: purchased Reaction Biology Corporation (Kinase HotSpot)
Procedure: as §1

[6] = molecular target: T6, CDK4/cyclin D3 (Homo sapiens, UniProt P11802)
T6 construct: purchased Reaction Biology Corporation (Kinase HotSpot)
Procedure: as §1

[7] = molecular target: T7, CDK7/cyclin H (Homo sapiens, UniProt P50613)
T7 construct: purchased Reaction Biology Corporation (Kinase HotSpot)
Procedure: as §1

[8] = molecular target: T8, CK1g3 (Homo sapiens, UniProt Q9Y6M4)
T8 construct: purchased Reaction Biology Corporation (Kinase HotSpot)
Procedure: as §1

[9] = molecular target: T9, DMPK (Homo sapiens, UniProt Q09013)
T9 construct: purchased Reaction Biology Corporation (Kinase HotSpot)
Procedure: as §1

[10] = molecular target: T10, ERN1/IRE1 (Homo sapiens, UniProt O75460)
T10 construct: purchased Reaction Biology Corporation (Kinase HotSpot)
Procedure: as §1

[11] = molecular target: T11, FER (Homo sapiens, UniProt P16591)
T11 construct: purchased Reaction Biology Corporation (Kinase HotSpot)
Procedure: as §1

[12] = molecular target: T12, GSK3b (Homo sapiens, UniProt P49841)
T12 construct: purchased Reaction Biology Corporation (Kinase HotSpot)
Procedure: as §1

[13] = molecular target: T13, HCK (Homo sapiens, UniProt P08631)
T13 construct: purchased Reaction Biology Corporation (Kinase HotSpot)
Procedure: as §1

[14] = molecular target: T14, Haspin (Homo sapiens, UniProt Q8TF76)
T14 construct: purchased Reaction Biology Corporation (Kinase HotSpot)
Procedure: as §1

[15] = molecular target: T15, IKKb/IKBKB (Homo sapiens, UniProt O14920)
T15 construct: purchased Reaction Biology Corporation (Kinase HotSpot)
Procedure: as §1

[16] = molecular target: T16, KHS/MAP4K5 (Homo sapiens, UniProt Q9Y4K4)
T16 construct: purchased Reaction Biology Corporation (Kinase HotSpot)
Procedure: as §1

[17] = molecular target: T17, LYN B (Homo sapiens, UniProt P07948)
T17 construct: purchased Reaction Biology Corporation (Kinase HotSpot)
Procedure: as §1

[18] = molecular target: T18, MARK3 (Homo sapiens, UniProt P27448)
T18 construct: purchased Reaction Biology Corporation (Kinase HotSpot)
Procedure: as §1

[19] = molecular target: T19, MLCK/MYLK (Homo sapiens, UniProt Q15746)
T19 construct: purchased Reaction Biology Corporation (Kinase HotSpot)
Procedure: as §1

[20] = molecular target: T20, MSK1/RPS6KA5 (Homo sapiens, UniProt O75582)
T20 construct: purchased Reaction Biology Corporation (Kinase HotSpot)
Procedure: as §1

[21] = molecular target: T21, MSK2/RPS6KA4 (Homo sapiens, UniProt O75676)
T21 construct: purchased Reaction Biology Corporation (Kinase HotSpot)
Procedure: as §1

[22] = molecular target: T22, NEK6 (Homo sapiens, UniProt Q9HC98)
T22 construct: purchased Reaction Biology Corporation (Kinase HotSpot)
Procedure: as §1

[23] = molecular target: T23, PKCb2 (Homo sapiens, UniProt P05771)
T23 construct: purchased Reaction Biology Corporation (Kinase HotSpot)
Procedure: as §1

[24] = molecular target: T24, PLK3 (Homo sapiens, UniProt Q9H4B4)
T24 construct: purchased Reaction Biology Corporation (Kinase HotSpot)
Procedure: as §1

[25] = molecular target: T25, ROCK1 (Homo sapiens, UniProt Q13464)
T25 construct: purchased Reaction Biology Corporation (Kinase HotSpot)
Procedure: as §1

[26] = molecular target: T26, SGK2 (Homo sapiens, UniProt Q9HBY8)
T26 construct: purchased Reaction Biology Corporation (Kinase HotSpot)
Procedure: as §1

[27] = molecular target: T27, SIK2 (Homo sapiens, UniProt Q9H0K1)
T27 construct: purchased Reaction Biology Corporation (Kinase HotSpot)
Procedure: as §1

[28] = molecular target: T28, SIK3 (Homo sapiens, UniProt Q9Y2K2)
T28 construct: purchased Reaction Biology Corporation (Kinase HotSpot)
Procedure: as §1

[29] = molecular target: T29, TBK1 (Homo sapiens, UniProt Q9UHD2)
T29 construct: purchased Reaction Biology Corporation (Kinase HotSpot)
Procedure: as §1

[30] = molecular target: T30, TNIK (Homo sapiens, UniProt Q9UKE5)
T30 construct: purchased Reaction Biology Corporation (Kinase HotSpot)
Procedure: as §1

T3 sequence (Q99683 whole entry): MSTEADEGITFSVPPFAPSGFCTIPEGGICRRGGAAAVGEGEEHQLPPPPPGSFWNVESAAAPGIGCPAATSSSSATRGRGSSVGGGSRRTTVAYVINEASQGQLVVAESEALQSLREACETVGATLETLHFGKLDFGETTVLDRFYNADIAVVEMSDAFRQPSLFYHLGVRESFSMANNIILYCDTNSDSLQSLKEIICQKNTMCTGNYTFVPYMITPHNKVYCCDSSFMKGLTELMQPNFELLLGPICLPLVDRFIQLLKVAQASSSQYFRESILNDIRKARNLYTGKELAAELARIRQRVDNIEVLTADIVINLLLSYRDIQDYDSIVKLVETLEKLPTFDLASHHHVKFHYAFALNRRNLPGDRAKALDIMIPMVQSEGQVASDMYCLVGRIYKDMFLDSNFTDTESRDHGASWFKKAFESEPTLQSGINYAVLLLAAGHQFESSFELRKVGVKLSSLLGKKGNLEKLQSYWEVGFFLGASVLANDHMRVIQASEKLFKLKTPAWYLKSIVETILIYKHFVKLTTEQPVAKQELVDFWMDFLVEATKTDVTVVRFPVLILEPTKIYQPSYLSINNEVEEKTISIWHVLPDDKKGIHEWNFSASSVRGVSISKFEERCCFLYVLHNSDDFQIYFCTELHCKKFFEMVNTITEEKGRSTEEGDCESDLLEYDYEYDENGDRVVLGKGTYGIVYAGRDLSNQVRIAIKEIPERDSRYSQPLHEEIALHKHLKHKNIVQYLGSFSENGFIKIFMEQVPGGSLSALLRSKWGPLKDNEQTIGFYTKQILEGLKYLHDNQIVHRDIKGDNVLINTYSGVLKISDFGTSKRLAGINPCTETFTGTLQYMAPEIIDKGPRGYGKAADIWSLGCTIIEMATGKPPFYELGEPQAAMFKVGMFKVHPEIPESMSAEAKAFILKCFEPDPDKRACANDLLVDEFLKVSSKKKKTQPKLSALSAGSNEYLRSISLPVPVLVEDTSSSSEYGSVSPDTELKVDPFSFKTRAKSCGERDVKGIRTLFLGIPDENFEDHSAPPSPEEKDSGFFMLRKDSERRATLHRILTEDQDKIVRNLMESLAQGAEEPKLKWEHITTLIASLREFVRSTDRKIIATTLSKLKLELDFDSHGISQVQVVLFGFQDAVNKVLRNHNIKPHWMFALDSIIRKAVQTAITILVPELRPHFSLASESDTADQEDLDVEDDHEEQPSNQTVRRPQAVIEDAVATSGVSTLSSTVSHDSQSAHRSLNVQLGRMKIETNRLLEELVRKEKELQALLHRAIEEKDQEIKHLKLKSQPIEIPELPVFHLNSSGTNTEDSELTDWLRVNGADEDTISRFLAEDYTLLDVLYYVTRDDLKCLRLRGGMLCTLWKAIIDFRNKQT
T14 sequence (Q8TF76 whole entry): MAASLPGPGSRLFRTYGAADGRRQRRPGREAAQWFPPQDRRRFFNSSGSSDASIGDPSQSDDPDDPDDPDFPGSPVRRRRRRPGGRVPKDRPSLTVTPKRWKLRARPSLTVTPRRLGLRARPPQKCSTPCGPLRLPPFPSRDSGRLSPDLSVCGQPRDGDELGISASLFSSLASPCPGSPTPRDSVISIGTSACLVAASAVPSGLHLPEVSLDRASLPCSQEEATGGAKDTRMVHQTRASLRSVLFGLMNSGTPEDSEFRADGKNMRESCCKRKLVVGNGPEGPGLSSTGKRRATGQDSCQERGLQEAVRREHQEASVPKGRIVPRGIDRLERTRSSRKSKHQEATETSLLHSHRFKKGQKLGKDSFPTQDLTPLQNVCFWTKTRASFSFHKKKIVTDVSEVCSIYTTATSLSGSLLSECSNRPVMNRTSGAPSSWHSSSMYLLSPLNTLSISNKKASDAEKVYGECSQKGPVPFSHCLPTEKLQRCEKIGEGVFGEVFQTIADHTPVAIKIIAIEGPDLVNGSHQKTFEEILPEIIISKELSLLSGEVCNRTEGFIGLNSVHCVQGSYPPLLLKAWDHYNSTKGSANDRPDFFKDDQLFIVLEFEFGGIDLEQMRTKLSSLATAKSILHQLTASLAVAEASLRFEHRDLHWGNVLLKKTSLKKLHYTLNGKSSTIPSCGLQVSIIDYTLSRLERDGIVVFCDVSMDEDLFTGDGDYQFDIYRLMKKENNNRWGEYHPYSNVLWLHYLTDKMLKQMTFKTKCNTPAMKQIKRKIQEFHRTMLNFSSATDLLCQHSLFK
T25 sequence (Q13464 whole entry): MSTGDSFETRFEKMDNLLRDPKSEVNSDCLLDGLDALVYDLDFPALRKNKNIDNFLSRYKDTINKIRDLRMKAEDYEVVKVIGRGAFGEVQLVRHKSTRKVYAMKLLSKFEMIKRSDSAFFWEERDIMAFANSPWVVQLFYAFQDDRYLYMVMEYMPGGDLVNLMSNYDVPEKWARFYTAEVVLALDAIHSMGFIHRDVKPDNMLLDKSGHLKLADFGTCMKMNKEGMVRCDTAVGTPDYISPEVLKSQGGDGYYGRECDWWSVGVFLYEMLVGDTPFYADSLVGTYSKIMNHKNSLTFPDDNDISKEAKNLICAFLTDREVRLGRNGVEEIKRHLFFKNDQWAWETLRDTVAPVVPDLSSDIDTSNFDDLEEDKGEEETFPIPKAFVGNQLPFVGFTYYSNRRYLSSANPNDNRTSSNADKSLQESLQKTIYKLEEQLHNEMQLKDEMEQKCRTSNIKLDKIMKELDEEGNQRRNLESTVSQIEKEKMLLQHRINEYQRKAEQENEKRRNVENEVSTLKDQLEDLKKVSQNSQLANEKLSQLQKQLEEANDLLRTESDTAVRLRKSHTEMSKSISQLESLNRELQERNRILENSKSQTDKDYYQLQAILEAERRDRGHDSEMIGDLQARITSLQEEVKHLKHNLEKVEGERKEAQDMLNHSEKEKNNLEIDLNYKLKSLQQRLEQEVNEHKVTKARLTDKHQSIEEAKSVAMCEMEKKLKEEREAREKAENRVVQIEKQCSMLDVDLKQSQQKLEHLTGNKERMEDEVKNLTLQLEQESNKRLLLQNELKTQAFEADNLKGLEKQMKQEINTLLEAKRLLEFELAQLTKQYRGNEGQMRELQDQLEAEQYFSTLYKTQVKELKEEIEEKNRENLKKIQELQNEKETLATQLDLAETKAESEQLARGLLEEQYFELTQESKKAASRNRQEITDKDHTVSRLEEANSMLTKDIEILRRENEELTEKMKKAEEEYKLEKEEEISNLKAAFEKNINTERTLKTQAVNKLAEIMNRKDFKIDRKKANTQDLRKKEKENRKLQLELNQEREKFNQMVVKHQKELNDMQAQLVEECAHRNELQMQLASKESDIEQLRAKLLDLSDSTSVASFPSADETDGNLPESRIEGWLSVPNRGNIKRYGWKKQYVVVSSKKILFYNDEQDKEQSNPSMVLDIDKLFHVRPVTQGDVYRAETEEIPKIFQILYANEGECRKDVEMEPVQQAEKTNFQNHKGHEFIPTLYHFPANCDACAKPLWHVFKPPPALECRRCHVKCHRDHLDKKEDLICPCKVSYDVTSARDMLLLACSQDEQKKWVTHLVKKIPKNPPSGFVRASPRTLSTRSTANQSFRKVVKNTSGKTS
T27 sequence (Q9H0K1 whole entry): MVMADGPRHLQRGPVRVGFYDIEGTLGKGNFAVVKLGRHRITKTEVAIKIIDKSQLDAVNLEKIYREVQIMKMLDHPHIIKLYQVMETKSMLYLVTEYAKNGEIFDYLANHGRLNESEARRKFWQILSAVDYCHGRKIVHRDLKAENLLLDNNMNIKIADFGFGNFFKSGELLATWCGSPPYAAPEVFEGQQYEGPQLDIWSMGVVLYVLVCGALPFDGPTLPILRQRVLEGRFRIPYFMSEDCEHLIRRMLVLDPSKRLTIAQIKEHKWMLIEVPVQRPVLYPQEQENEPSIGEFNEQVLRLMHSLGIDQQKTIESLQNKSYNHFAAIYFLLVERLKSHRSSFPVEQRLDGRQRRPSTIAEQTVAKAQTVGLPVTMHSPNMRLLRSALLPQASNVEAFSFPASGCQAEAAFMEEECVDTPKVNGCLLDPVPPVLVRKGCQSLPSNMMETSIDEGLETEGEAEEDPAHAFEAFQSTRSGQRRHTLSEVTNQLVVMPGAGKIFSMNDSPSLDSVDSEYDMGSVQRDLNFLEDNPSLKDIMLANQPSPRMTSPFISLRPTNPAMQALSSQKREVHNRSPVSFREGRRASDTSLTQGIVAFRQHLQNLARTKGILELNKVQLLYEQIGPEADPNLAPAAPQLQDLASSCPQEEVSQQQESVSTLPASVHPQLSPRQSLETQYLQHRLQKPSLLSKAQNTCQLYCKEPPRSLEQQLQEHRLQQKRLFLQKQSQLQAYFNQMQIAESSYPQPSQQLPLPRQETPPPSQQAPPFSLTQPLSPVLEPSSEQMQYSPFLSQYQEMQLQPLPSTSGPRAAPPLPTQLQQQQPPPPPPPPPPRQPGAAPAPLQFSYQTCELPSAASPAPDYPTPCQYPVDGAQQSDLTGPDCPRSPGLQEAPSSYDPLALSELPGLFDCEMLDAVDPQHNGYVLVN
T26 sequence (Q9HBY8 whole entry): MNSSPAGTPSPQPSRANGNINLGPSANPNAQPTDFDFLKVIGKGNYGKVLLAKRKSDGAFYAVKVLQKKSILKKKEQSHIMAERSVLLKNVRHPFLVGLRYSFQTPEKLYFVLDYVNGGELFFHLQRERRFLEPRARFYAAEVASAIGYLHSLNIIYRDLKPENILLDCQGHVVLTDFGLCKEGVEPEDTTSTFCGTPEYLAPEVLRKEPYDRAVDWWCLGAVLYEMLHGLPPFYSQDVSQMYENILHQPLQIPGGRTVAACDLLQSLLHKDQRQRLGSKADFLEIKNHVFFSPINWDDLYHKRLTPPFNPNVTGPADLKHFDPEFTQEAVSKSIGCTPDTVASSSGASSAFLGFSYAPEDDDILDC

## Cc1cnc(N[C@H]2CC[C@H](N)CC2)nc1-c1cnc2ccc(-c3ccccc3)cn12 [CDDD11-8]
[1]
  remaining activity at 1 µM: 68.9%
[2]
  remaining activity at 1 µM: 91.5%
[3]
  remaining activity at 1 µM: 90.2%
[4]
  remaining activity at 1 µM: 44.4%
[5]
  remaining activity at 1 µM: 57.4%
[6]
  remaining activity at 1 µM: 79.7%
[7]
  remaining activity at 1 µM: 63.7%
[8]
  remaining activity at 1 µM: 63.2%
[9]
  remaining activity at 1 µM: 96.2%
[10]
  remaining activity at 1 µM: 41.8%
[11]
  remaining activity at 1 µM: 70%
[12]
  remaining activity at 1 µM: 94.5%
[13]
  remaining activity at 1 µM: 62.7%
[14]
  remaining activity at 1 µM: 65.1%
[15]
  remaining activity at 1 µM: 78.1%
[16]
  remaining activity at 1 µM: 20.3%
[17]
  remaining activity at 1 µM: 88.5%
[18]
  remaining activity at 1 µM: 37%
[19]
  remaining activity at 1 µM: 57.2%
[20]
  remaining activity at 1 µM: 61.6%
[21]
  remaining activity at 1 µM: 97.4%
[22]
  remaining activity at 1 µM: 96.2%
[23]
  remaining activity at 1 µM: 121%
[24]
  remaining activity at 1 µM: 109%
[25]
  remaining activity at 1 µM: 76.3%
[26]
  remaining activity at 1 µM: 113%
[27]
  remaining activity at 1 µM: 35.8%
[28]
  remaining activity at 1 µM: 59.9%
[29]
  remaining activity at 1 µM: 94.6%
[30]
  remaining activity at 1 µM: 4.38%
